PubChem BioAssay (NCI)
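Test compounds were applied to cells in 96-well plates for 48 hours at 5 doses. Abbreviation: GI50, concentration required for 50% inhibition of growth. The concentration for full growth arrest is given as TGI.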

Legend:
Assay in all cases: NCI anticancer screen, dose series, 48 h
[1] = system: CCRF-CEM leukemia
[2] = system: MCF7 breast
[3] = system: UACC-257 melanoma
[4] = system: SF-539 CNS
[5] = system: HOP-62 NSCLC
[6] = system: OVCAR-4 ovarian
[7] = system: A498 renal
[8] = system: SN12C renal
[9] = system: U251 CNS
[10] = system: NCI-H23 lung
[11] = system: OVCAR-5 ovarian
[12] = system: SK-MEL-2 melanoma
[13] = system: SK-OV-3 ovarian
[14] = system: OVCAR-3 ovarian
[15] = system: DMS 114 small cell lung
[16] = system: DLD-1 colon
[17] = system: LOX IMVI melanoma
[18] = system: HCC-2998 colon
[19] = system: HOP-18 NSCLC

Row | Compound | TGI [1] [µM] | TGI [2] [µM] | TGI [3] [µM] | TGI [4] [µM] | TGI [5] [µM] | TGI [6] [µM] | TGI [7] [µM] | TGI [8] [µM] | TGI [9] [µM] | TGI [10] [µM] | TGI [11] [µM] | TGI [12] [µM] | TGI [13] [µM] | TGI [14] [µM] | TGI [15] [µM] | TGI [16] [µM] | TGI [17] [µM] | TGI [18] [µM] | TGI [19] [µM] | GI50 [2] [µM]
1 | C=CC1OC(CCCOC(=O)C(C)(C)C)O[C@@H]1CC (stereo partly drawn) | > 100 | > 100 | > 100 | > 100 | > 100 | > 100 | > 100 | > 100 | > 100 | > 100 | > 100 | > 100 | > 100 | > 100 |  |  |  |  |  | 
2 | C=C(C)C1Cc2c(cc(O)c3c(=O)c4ccccc4n(C)c23)O1 (stereo not drawn) | > 100 |  | > 100 |  | 61.3 | 26.7 | 92.6 | > 100 | > 100 | > 100 | > 100 | > 100 | 84.6 |  | > 100 | > 100 | 37.2 | > 100 | > 100 | 
3 | C/C=C(/C)C(=O)O[C@@H]1c2c(C)coc2C[C@H]2CC[C@H](O)[C@H](C)[C@]21C | > 100 | 87.8 | > 100 | 87 | > 100 | > 100 |  | > 100 | > 100 | > 100 | > 100 |  | > 100 | 70.6 |  |  | > 100 | > 100 |  | 
4 | O=[N+]([O-])c1ccc(/C=C/c2ccc(N=Nc3ccc(/C=C/c4ccc([N+](=O)[O-])cc4S(=O)(=O)O)c(S(=O)(=O)O)c3)cc2S(=O)(=O)O)c(S(=O)(=O)O)c1 | > 100 | > 100 | > 100 | > 100 | > 100 | > 100 | > 100 | > 100 | > 100 | > 100 | > 100 | > 100 | > 100 | > 100 | > 100 | > 100 | > 100 | > 100 | > 100 | 
5 | O=C(O)Cc1ccc(N2N=C(c3ccccc3)CC2=O)cc1 | > 100 | > 100 | > 100 |  | > 100 | > 100 | > 100 | > 100 | > 100 | > 100 | > 100 | > 100 | > 100 | > 100 |  |  |  | > 100 |  | 
6 | COc1ccc(/C(Cl)=C(\C=O)c2ccc(F)cc2)cc1 | 18.7 |  |  | 50.2 | 59.3 |  | 52.7 | 64.7 | 23.5 | 72.9 |  | 28.6 | 77.1 | 58 | 45.1 | 50.3 | 39.3 |  | 51.7 | 
7 | [Cl-].[Rh+3].c1ccc(-c2ccnc3c2ccc2c(-c4ccccc4)ccnc23)cc1.c1ccc(-c2ccnc3c2ccc2c(-c4ccccc4)ccnc23)cc1.c1ccc(-c2ccnc3c2ccc2c(-c4ccccc4)ccnc23)cc1 | > 100 | > 100 | > 100 | > 76 | > 100 | > 100 | > 83.4 | > 100 | > 100 | > 100 | > 100 | > 100 | > 100 | > 100 | 75 | > 64.4 | > 100 | 50 | > 87.4 | 71.3
8 | CN(C)CCNCc1c2ccccc2c(CNCCN(C)C)c2ccccc12 | 88.8 | 79.8 | 32.5 | > 73.6 | 75.5 | 72 | 55.9 | > 100 | 56.9 | > 100 | 43.5 | 57.5 | 42.5 | > 100 | > 70.1 | > 100 | 38.7 | 23.8 | > 100 | 
9 | COC(=O)[C@@H]1c2cc3c(c(O)c2[C@@H](OC)C[C@@]1(C)O)C(=O)c1c(O)cc2c(c1C3=O)OC1O[C@@]2(C)[C@H](O)[C@@H](N(C)C)[C@@H]1O | > 150 | 6.48 | 1.21 | 7.48 | 1.06 | 1.76 | 0.764 | 2.1 | 1.92 | 1.49 | 2.16 | 0.727 | 3.94 | 1.69 | 0.633 | 8.83 |  | 1.37 | 1.34 | 
